Measured values from patent US8389544B2, “Isoquinolone compounds as subtype-selective agonists for melatonin receptors MT1 and MT2” (The Hong Kong University of Science and Technology, priority 2007, dated 2013).

Key:
MT2 receptor = biological target: T1, MT2 receptor (Homo sapiens, UniProt P49286); test: cAMP assay, MT2; format: cell-based; design: expressed in transfected cells; host or cells: COS-7 (monkey kidney fibroblast); details: inhibition of forskolin-stimulated cAMP production; MT2-expressing cells
T1 sequence (P49286 1-362): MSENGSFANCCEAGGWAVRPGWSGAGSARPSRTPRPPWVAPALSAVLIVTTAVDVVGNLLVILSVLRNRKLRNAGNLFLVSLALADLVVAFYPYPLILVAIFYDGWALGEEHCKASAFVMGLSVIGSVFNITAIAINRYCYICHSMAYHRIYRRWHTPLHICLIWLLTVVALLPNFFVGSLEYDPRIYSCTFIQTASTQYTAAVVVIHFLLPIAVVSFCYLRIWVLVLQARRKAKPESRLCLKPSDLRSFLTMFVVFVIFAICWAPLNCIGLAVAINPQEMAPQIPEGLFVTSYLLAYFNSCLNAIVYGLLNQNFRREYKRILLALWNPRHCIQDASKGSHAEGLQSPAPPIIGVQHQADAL

Parental 293 = test: MTT cytotoxicity assay, parental 293 cells; format: cell-based; details: percentage of untreated control cells
Method: (§1) This assay evaluates the cytotoxic effects of the novel isoquinolone compounds based on the cellular viability under chronic treatments. Viable cells but not dead cells can turn the substrate into a colored product, which yields higher absorbance. […] A low percentage indicates low cytoviability (or high cytotoxicity).
(§2) 5. Cytotoxicity Test Using MTT Assay
(§3) Cells were seeded into clear 96-well plate at an appropriate density in 100 μl growth medium and were allowed to grow overnight. The novel isoquinolone compounds were diluted to desired concentrations using fresh growth medium, and these dilutions were used to replace the growth media in each well. After incubating for 24-96 h, 10 μl of the MTT labeling reagent (Roche) was added to each well and the cells were incubated in a CO2 incubator for 4 h. 100 μl solubilization buffer was then added into each well and incubated overnight for complete solubilization of the purple formazan crystals. […] Each condition was performed in triplicate in every experiment and the results were expressed as % of blank control±SD.

MT1 receptor [1] = biological target: T2, MT1 receptor (Homo sapiens, UniProt P48039); test: cAMP assay, MT1; format: cell-based; design: expressed in transfected cells; host or cells: COS-7 (monkey kidney fibroblast); details: inhibition of forskolin-stimulated cAMP production; MT1-expressing cells
T2 sequence (P48039 whole entry): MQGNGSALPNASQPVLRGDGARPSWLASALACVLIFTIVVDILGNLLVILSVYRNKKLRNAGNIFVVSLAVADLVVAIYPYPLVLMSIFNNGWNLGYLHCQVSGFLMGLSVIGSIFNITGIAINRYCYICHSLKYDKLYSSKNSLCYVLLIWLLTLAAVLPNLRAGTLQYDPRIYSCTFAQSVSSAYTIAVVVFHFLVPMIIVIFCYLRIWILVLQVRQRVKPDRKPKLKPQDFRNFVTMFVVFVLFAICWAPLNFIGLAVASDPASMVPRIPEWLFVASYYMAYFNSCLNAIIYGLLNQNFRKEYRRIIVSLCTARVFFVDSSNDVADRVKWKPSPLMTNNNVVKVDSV

MT1 receptor [2] = biological target: T2, MT1 receptor; test: Competitive [3H]melatonin binding assay, MT1; design: expressed in transfected cells; details: displacement of 1 nM [3H]melatonin, HEK-293 cells; log value, negative; NSB = No significant binding
Method: Competitive ligand binding assays were performed to examine the receptor binding characteristics of the novel isoquinolone compounds. The assay measures the ability of the novel isoquinolone compounds to bind and displace the radiolabelled endogenous ligand, [^3H]melatonin. Increasing concentrations of the novel compounds are added to displace the [^3H]melatonin-bound to MT1 or MT2 receptor-expressing cells.
4. Competitive Binding Assay
The ability of compounds to bind to MT1 and/or MT2 receptors is determined using radioligand binding assays. […] 48 hours following transfection, cells are harvested in binding buffer (50 mM Tris-HCl, 2 mM MgCl2, 1 mM EDTA, pH 7.4). 100,000 cells are incubated with 1 nM [^3H] melatonin (specific activity: 83 Ci/mmol; GE Healthcare) and appropriate concentrations (0.1 nM to 1 μM) of unlabelled ligands in a total volume of 100 μl in 96-well plates (PerkinElmer Life And Analytical Sciences, Inc., Boston, Mass.) for 2 hours at room temperature. Reactions are terminated by rapid filtration through a 96-well cell harvester onto 96-well GF/C filter mats. Filters are washed with 500 μl of ice-cold binding buffer, dried and sealed in a polyethylene bag with 3.5 ml of scintillation fluid and counted for tritium in a Microbeta Jet scintillation counter. […] Data are analyzed by nonlinear least-squares regression using GraphPad Prism 3.02.

MT1 receptor [3] = biological target: T2, MT1 receptor; test: CRE-Luc (luciferase reporter gene) assay, MT1; format: cell-based; design: expressed in transfected cells; details: HEK 293-pCREluc cells with MT1; inhibition of forskolin response
Method: The luciferase reporter gene assay offers another way to measure melatonin receptor activation. Cells expressing cAMP-responsive element-driven luciferase reporter gene (293-pCREluc) and either the MT1 or MT2 receptor are treated with forskolin (a substance which stimulates cAMP production as well as the subsequent luciferase gene expression) alone or with a novel isoquinolone compound. As melatonin receptor activation inhibits cAMP production, any suppression in the expression of luciferase leads to a decrease in enzymatic activities and a reduction in the amount of luminescence signal generated.
The luciferase assay, a reporter gene assay, was performed to confirm the ability of the invention to activate the melatonin receptors. Prior to the assay, HEK (human embryonic kidney) 293 cells are stably transfected with cAMP-responsive element-driven luciferase reporter gene (293-pCREluc) and cDNAs encoding MT1 or MT2 receptors. The cells are then exposed to the novel isoquinolone compounds, after which the substrate luciferin is added and the resulting luminescence measured.
Prior to the assay human embryonic kidney (HEK) 293 cells (CRL-1573, ATCC) is maintained at 37° C. in minimum essential medium (MEM) supplemented with 10% fetal bovine serum (FBS), 100 units/ml penicillin and 100 μg/ml streptomycin in a humidified atmosphere containing 5% CO2. Human embryonic kidney 293 cells stably transfected with cAMP-responsive element-driven luciferase reporter gene (293-pCREluc) are established and maintained in growth medium supplemented with 300 μg/ml G418 sulphate.
For luciferase assays, HEK-293 cells stably expressing pCRE-luciferase are seeded at a density of 15,000 cells/well into 96 well plates. Transfection is carried out using Lipofectamine Plus® reagent at 0.2 μl of both Plus and lipofectamine reagents with 50 ng cDNAs encoding MT1 or MT2 receptors per well. After a 3 hour transfection period at 37° C., 50 μl of DMEM with 20% fetal calf serum (FCS) is added into the wells and the plate is incubated at 37° C. for 48 h prior to 24 hour serum starvation. […]
Cells are harvested by replacing medium in the well by 50 μl luciferase lysis buffer. The Berthold microplate luminometer is maintained at 25° C. throughout the assay. Injector M connected to an empty tube and P connected to the drug tube are set to inject 25 μl of luciferin into appropriate wells. A 1.6 second delay time followed by a 1 second measuring time period is assigned to injector M, whereas injector P is measured for 10 seconds after luciferase substrate is introduced into the well. Results are expressed as relative luminescent units (RLU). Where indicated, agonist-induced activity is expressed as a percentage of the RLU obtained with forskolin.

MT2/293 = test: MTT cytotoxicity assay, MT2/293 cells; format: cell-based; details: percentage of untreated control cells
Method: as §1, §2, §3

Structure (SMILES) | cAMP Assay MT2 % Inh (MT2 receptor) [%] | MTT Assay Parental 293 % Viability ± SEM (Parental 293) [%] | cAMP Assay MT1 % Inh (MT1 receptor [1]) [%] | Binding Assay MT1 logIC50 ± SEM (MT1 receptor [2]) | CRE-Luc Assay MT1 % Inh ± SEM of 1 μM Fsk (MT1 receptor [3]) [%] | MTT Assay MT2/293 % Viability ± SEM (MT2/293) [%]
Cn1ccc2cc(OC(=O)c3ccccc3)c(OC(=O)c3ccccc3)cc2c1=O [IS039] | 4.2 ± 6.8 | 104.9 ± 4.8 | 8.8 ± 5.8 | NSB | 73.0 ± 5.0 | 117.6 ± 9.0
COc1cc(COc2cc3ccn(C)c(=O)c3cc2OC)cc(OC)c1 [IS042] | 58.7 ± 5.8 | 60.7 ± 0.4 | 81.8 ± 6.2 | NSB | 73.9 ± 7.8 | 56.3 ± 1.5
COc1cccc(COc2cc3ccn(C)c(=O)c3cc2OC)c1 [IS044] | 62.5 ± 4.0 | 78.6 ± 5.8 | 72.9 ± 7.5 | NSB | 82.3 ± 6.0 | 112.5 ± 3.8
COc1cccc(COc2cc3c(=O)n(C)ccc3cc2OC)c1 [IS521] | 63.2 ± 4.9 | 66.1 ± 4.9 | 19.4 ± 17.4 | NSB | 84.2 ± 5.5 | 90.5 ± 11.7
COc1cc(COc2cc3c(=O)n(C)ccc3cc2OC)cc(OC)c1 [IS523] | 50.8 ± 9.1 | 37.5 ± 0.9 | 18.6 ± 14.7 | NSB | 70.4 ± 5.6 | 46.2 ± 3.7
COc1cc2ccn(C)c(=O)c2cc1OCc1ccc(C(C)(C)C)cc1 [IS526] | −63.9 ± 59.2 | 27.5 ± 18.9 | 26.9 ± 24.1 | NSB | 36.2 ± 11.8 | 24.7 ± 1.6
COc1cccc(COc2c(OC)ccc3c(=O)n(C)ccc23)c1 [IS527] | 51.4 ± 12.1 | 36.8 ± 0.0 | 28.3 ± 16.0 | NSB | 82.4 ± 6.4 | 46.8 ± 0.2
COc1cc(COc2c(OC)ccc3c(=O)n(C)ccc23)cc(OC)c1 [IS528] | 49.4 ± 13.2 | 32.2 ± 2.3 | 39.2 ± 12.0 | NSB | 69.7 ± 10.1 | 42.4 ± 1.3
COc1ccc2c(=O)n(C)ccc2c1OCc1ccc(C)cc1 [IS529] | 37.7 ± 11.9 | 35.9 ± 0.4 | 34.0 ± 17.4 | NSB | 67.7 ± 5.4 | 48.5 ± 1.6
